The values that follow come from patent US20050163841A1, “Compositions and dosage forms for enhanced absorption of 3-amino-n-butyl-phosphinic acid” (priority 2003, published 2005).

Each structure is given as a SMILES string. Where two headings read alike, the source gives them in different places.

The nature of series [1]: Human pharmacokinetics of 3-aminopropyl-n-butyl-phosphinic acid (Gleitner 1). Format: in vivo, Humans. The note with it: implied from urinary excretion after oral administration.
The conditions of series [2]: cited from earlier work; for dose-corrected AUC: read from FIG. 4 of Gleitner 1.
Series [3] concerns patients suffering from Mild Cognitive Impairment (MCI). To be noted: 600 mg tid; cited from earlier work.

On to `CCCCP(=O)(O)CCCN` [3-aminopropyl-n-butyl-phosphinic acid], for which the “absorption through the oral route” value in series [1] was 38%. The “dose-corrected AUC” value in series [2] (600 mg dose) is 40 μmol·h/(L·mmol); in series [2] (2100 mg dose), 20 μmol·h/(L·mmol). In addition, the “reduction of drug systemic availability after food intake” value in series [2] (after food intake) is given as 30%. In addition, the “cumulative urinary excretion rate” value in series [2] (within 24 hours of i.v. administration) is 99.5+/−6.4 % of the dose; in series [2] (within 24 hours of oral administration), 38+/−13 % of the dose. Besides, in series [3], the “cognition in patients with Mild Cognitive Impairment” value is on record as “showed improvements in multiple cognitive domains”.
